Holding throughout (type): cell-based
The test system of test [1] is aCD3/aCD28-stimulated human PBMCs. The test can be described thus: Cytokine production in aCD3/aCD28 stimulated human PBMCs. As to conditions: PBMC, 18 h. An outline of the steps: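 Ficoll-isolated human PBMCs at 1e6 cells/mL in X-Vivo15, stimulated with soluble anti-CD3/CD28 (OKT3 and 28.2, 1 μg/mL each) plus compound for 18 h at 37° C. Supernatant cytokines quantified by MSD or HTRF.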

The test system of test [2] is CD8 T cells. Nature of the test: CD69 expression on aCD3/aCD28 stimulated isolated human CD8 T cells (flow cytometry). As to conditions: T-cell, 24 h after TCR stimulation, read-out: Activity Class CD69 (CD8). How it is done:
(§1) Isolated T cells were plated in Xvivo medium at 1.5*10 ^5 cells per in 96 well culture plates and TCR-stimulated with anti-CD3/28 mAbs in the presence of compound as indicated. Cytokine production was determined at 24 h or 48 h following TCR stimulation in cell culture supernatants using commercially available ELISA kits (BD and eBioscience) as recommended by the manufacturer. T cell proliferation and CD25 expression (CD25-PC5 reagent purchased from Beckman Coulter) was determined by flow cytometry (Beckman-Coulter FC500) and analysed with Kaluza Software. For measurement of CD69 expression, isolated CD4 and CD8 T cells were plated in Xvivo medium at […] per in 96 well culture plates and TCR-stimulated with anti-CD3/28 mAbs in the presence of compound. CD69 expression was determined at 24 h following TCR stimulation by flow cytometry (CD4eF450, CD8APCeF780 and CD69-PC7 reagent purchased from eBioscience) and analysed with Kaluza Software.
(§2) For measurement of CD69 expression, isolated CD4 and CD8 T cells were plated in Xvivo medium at 80000 cells per in 96 well culture plates and TCR-stimulated with anti-CD3/28 mAbs in the presence of compound. CD69 expression was determined at 24 h following TCR stimulation by flow cytometry (CD4eF450, CD8APCeF780 and CD69-PC7 reagent purchased from eBioscience) and analysed with Kaluza Software.

In test [3] the test system is aCD3/aCD28-stimulated human CD4+-T-cells. The test can be described thus: IL-2 production and activation markers in aCD3/aCD28 stimulated isolated human CD4+-T-cells. To be noted: IL-2 production at 3 μM compound. An outline of the steps: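 CD4+ T cells isolated from buffy-coat PBMCs by microbeads were plated in Xvivo medium (1.5*10^5 cells/well) and stimulated with anti-CD3/28 mAbs plus compound. IL-2 measured by ELISA in supernatants at 24 h or 48 h; CD25 and proliferation by flow cytometry, CD69 at 24 h. Activity classes based on IL-2 at 3 μM compound.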

Test [4] relates to CD4 T cells. The test can be described thus: CD69 expression on aCD3/aCD28 stimulated isolated human CD4 T cells (flow cytometry). To be noted: 24 h after TCR stimulation, read-out: Activity Class CD69 (CD4). As to the method: as §1, §2
Background: In flow cytometry, cells or beads pass a laser one at a time.

The mark [5] stands for this setting: enhancement of IFN-γ production, read-out: Activity Class IFN-γ.
[6] abbreviates: enhancement of IL-2 production, read-out: Activity Class IL-2.

Counter-ions that a name gives are not always drawn. Like-named read-outs stand apart in the source and are kept apart here. A value given as a limit tells only on which side of the number the result lay.

The text below walks through data of patent US10472341B2, “Bicyclic tetrahydrothiazepine derivatives useful for the treatment of neoplastic and/or infectious diseases” (APEIRON BIOLOGICS AG, priority 2015, dated 2019).

For `Cl.N[C@H]1CS(=O)(=O)c2cc(F)c(C(=O)NCCCC(F)(F)F)cc2N(Cc2ccc(OC(F)(F)F)cc2)C1=O` [Example 73, (3R)-3-amino-8-fluoro-1,1,4-trioxo-N-(4,4,4-trifluorobutyl)-5-{[4-(trifluoromethoxy)-phenyl]methyl}-2,3,4,5-tetrahydro-1λ^6,5-benzothiazepine-7-carboxamide hydrochloride], the EC50 in test [1] (setting [5]), in test [1] (setting [6]), in test [2] and in test [4] was < 1.58 µM each time. In test [3], the “Activity Class CD4+” value is listed as “A (IL-2 production at 3 μM compound concentration >10 ng/mL)”.

On to `Cl.N[C@H]1CS(=O)(=O)c2cc(F)c(C(=O)NCC3CCOCC3)cc2N(Cc2ccc(Cl)cc2)C1=O` [Example 71, (3R)-3-amino-5-[(4-chlorophenyl)methyl]-8-fluoro-N-(oxan-4-ylmethyl)-1,1,4-trioxo-2,3,4,5-tetrahydro-1λ^6,5-benzothiazepine-7-carboxamide hydrochloride], for which the EC50 in test [1] (setting [5]), in test [1] (setting [6]), in test [2] and in test [4] was < 1.58 µM in each case. Besides, the “Activity Class CD4+” value in test [3] is “B (IL-2 production at 3 μM compound concentration between 2-10 ng/mL)”.

For `CCCCNC(=O)c1cc2c(cc1F)S(=O)(=O)C[C@H](N)C(=O)N2Cc1ccc(Cl)cc1.Cl` [Example 69, (3R)-3-amino-N-butyl-5-[(4-chlorophenyl)methyl]-8-fluoro-1,1,4-trioxo-2,3,4,5-tetrahydro-1λ^6,5-benzothiazepine-7-carboxamide hydrochloride], the EC50 in test [1] (setting [5]), in test [1] (setting [6]), in test [2] and in test [4] was < 1.58 µM in each case. In test [3], the “Activity Class CD4+” value is on record as “A (IL-2 production at 3 μM compound concentration >10 ng/mL)”.

For `Cl.N[C@H]1CS(=O)(=O)c2cc(F)c(C(=O)NCc3ccc(F)cc3)cc2N(Cc2ccc(Cl)cc2)C1=O` [Example 68, (3R)-3-amino-5-[(4-chlorophenyl)methyl]-8-fluoro-N-[(4-fluorophenyl)methyl]-1,1,4-trioxo-2,3,4,5-tetrahydro-1λ^6,5-benzothiazepine-7-carboxamide hydrochloride], the EC50 in test [1] (setting [5]), in test [1] (setting [6]), in test [2] and in test [4] was < 1.58 µM in each case. The “Activity Class CD4+” value in test [3] is listed as “A (IL-2 production at 3 μM compound concentration >10 ng/mL)”.

Regarding `Cl.N[C@H]1CS(=O)(=O)c2cc(F)c(C(=O)NC3CCC(F)(F)C3)cc2N(Cc2ccc(Cl)cc2)C1=O` (stereo partly drawn) [Example 105, (3R)-3-amino-5-[(4-chlorophenyl)methyl]-N-(3,3-difluorocyclopentyl)-8-fluoro-1,1,4-trioxo-2,3,4,5-tetrahydro-1λ^6,5-benzothiazepine-7-carboxamide hydrochloride], the EC50 in test [1] (setting [5]), in test [1] (setting [6]), in test [2] and in test [4] was < 1.58 µM in each case. Besides, the “Activity Class CD4+” value in test [3] was “A (IL-2 production at 3 μM compound concentration >10 ng/mL)”.

`Cl.N[C@H]1CS(=O)(=O)c2cc(F)c(C(=O)NCC3CCOCC3)cc2N(Cc2ccc(OC(F)(F)F)cc2)C1=O` [Example 72, (3R)-3-amino-8-fluoro-N-(oxan-4-ylmethyl)-1,1,4-trioxo-5-{[4-(trifluoromethoxy)-phenyl]methyl}-2,3,4,5-tetrahydro-1λ^6,5-benzothiazepine-7-carboxamide hydrochloride]: the EC50 in test [1] (setting [5]) was < 1.58 µM; in test [1] (setting [6]), < 1.58 µM; in test [2] it was 1.58 to 5.01 µM; in test [4], < 1.58 µM. For the same compound, the “Activity Class CD4+” value in test [3] is “A (IL-2 production at 3 μM compound concentration >10 ng/mL)”.

Regarding `N[C@H]1CS(=O)(=O)c2ccc(C(=O)N[C@@H]3CC3(F)F)cc2N(Cc2ccc(OC(F)F)cc2)C1=O` [Example 160, (3R)-3-amino-N-[(1R)-2,2-difluorocyclopropyl]-5-{[4-(difluoromethoxy)phenyl]methyl}-1,1,4-trioxo-2,3,4,5-tetrahydro-1λ^6,5-benzothiazepine-7-carboxamide], the EC50 in test [1] (setting [5]) is > 5.01 µM; in test [1] (setting [6]), > 5.01 µM; in test [2], 1.58 to 5.01 µM; in test [4], < 1.58 µM.

In the case of `N[C@H]1CS(=O)(=O)c2cc(F)c(C(=O)NCCCC(F)(F)F)cc2N(Cc2ccc(F)cc2)C1=O` [Example 129, (3R)-3-amino-8-fluoro-5-[(4-fluorophenyl)methyl]-1,1,4-trioxo-N-(4,4,4-trifluorobutyl)-2,3,4,5-tetrahydro-1λ^6,5-benzothiazepine-7-carboxamide hydrochloride], the EC50 in test [1] (setting [5]) was < 1.58 µM; in test [1] (setting [6]) it was 1.58 to 5.01 µM; in test [2], < 1.58 µM; in test [4], < 1.58 µM.

Consider `N[C@H]1CSc2cc(F)c(C(=O)NC3CC(F)(F)C3)cc2N(Cc2ccc(Cl)cc2)C1=O` [Example 128, (3R)-3-amino-5-[(4-chlorophenyl)methyl]-N-(3,3-difluorocyclobutyl)-8-fluoro-4-oxo-2,3,4,5-tetrahydro-1,5-benzothiazepine-7-carboxamide hydrochloride], for which the EC50 is 1.58 to 5.01 µM in test [1] (setting [5]), 1.58 to 5.01 µM in test [1] (setting [6]), 1.58 to 5.01 µM in test [2] and > 5.01 µM in test [4].

Take `COc1ccc(CNC(=O)c2ccc3c(c2)N(Cc2ccc(Cl)cc2)C(=O)[C@@H](N)CS3(=O)=O)cc1` [Example 153, (3R)-3-amino-5-[(4-chlorophenyl)methyl]-N-[(4-methoxyphenyl)methyl]-1,1,4-trioxo-2,3,4,5-tetrahydro-1λ^6,5-benzothiazepine-7-carboxamide]: the EC50 in test [1] (setting [5]), in test [1] (setting [6]), in test [2] and in test [4] was < 1.58 µM each time.

Turning to `N[C@H]1CS(=O)(=O)c2ccc(C(=O)NCC3CC(F)(F)C3)cc2N(Cc2ccc(Cl)cc2)C1=O` [Example 171, (3R)-3-amino-5-[(4-chlorophenyl)methyl]-N-[(3,3-difluorocyclobutyl)methyl]-1,1,4-trioxo-2,3,4,5-tetrahydro-1λ^6,5-benzothiazepine-7-carboxamide], the EC50 in test [1] (setting [5]) is 1.58 to 5.01 µM; in test [1] (setting [6]), < 1.58 µM; in test [2], < 1.58 µM; in test [4], < 1.58 µM.

With `Cl.N[C@H]1CS(=O)(=O)c2cc(F)c(C(=O)N[C@@H]3CC3(F)F)cc2N(Cc2ccc(Cl)cc2)C1=O` (single isomer, unassigned) [Example 106, hydrochloride], the EC50 in test [1] (setting [5]), in test [1] (setting [6]), in test [2] and in test [4] was 1.58 to 5.01 µM in each case.

For the compound `N[C@H]1CS(=O)(=O)c2ccc(C(=O)N[C@@H]3CC3(F)F)cc2N(Cc2ccc(Cl)cc2)C1=O` [Example 158, (3R)-3-amino-5-[(4-chlorophenyl)methyl]-N-[(1R)-2,2-difluorocyclopropyl]-1,1,4-trioxo-2,3,4,5-tetrahydro-1λ^6,5-benzothiazepine-7-carboxamide], the EC50 is < 1.58 µM in test [1] (setting [5]), 1.58 to 5.01 µM in test [1] (setting [6]), 1.58 to 5.01 µM in test [2] and 1.58 to 5.01 µM in test [4].
